For the assay, the target named is T1, human mAChR M4 (Homo sapiens, UniProt P08173).
T1 sequence (P08173 1-479): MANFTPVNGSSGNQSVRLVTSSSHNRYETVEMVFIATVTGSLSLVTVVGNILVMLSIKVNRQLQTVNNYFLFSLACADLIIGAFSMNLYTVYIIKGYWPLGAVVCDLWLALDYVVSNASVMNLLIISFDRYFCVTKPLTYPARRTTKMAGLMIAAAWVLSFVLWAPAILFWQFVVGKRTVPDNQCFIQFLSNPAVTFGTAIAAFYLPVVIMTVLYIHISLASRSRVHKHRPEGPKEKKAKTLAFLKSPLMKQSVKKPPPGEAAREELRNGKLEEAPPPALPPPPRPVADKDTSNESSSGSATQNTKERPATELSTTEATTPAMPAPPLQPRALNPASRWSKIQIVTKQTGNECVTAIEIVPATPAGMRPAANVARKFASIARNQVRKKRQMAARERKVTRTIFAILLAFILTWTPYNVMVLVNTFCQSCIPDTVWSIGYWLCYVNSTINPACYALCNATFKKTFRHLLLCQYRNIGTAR
Put plainly: mAChR M4 cell-based functional assay (calcium flux), human M4. Conditions: Table 10; for EC50: Human M4 EC50 (nM); for Emax: % ACh maximum at 30 μM. In general terms: Calcium flux is commonly read through the fluorescence of an indicator in the cells.

The mark [1] stands for this setting: calcium flux, PAM activity with EC20 acetylcholine.

Molecules are shown by their SMILES.

For orientation: EC50 means the concentration that produces a half-maximal response. As a reminder, the Emax is the greatest response seen or fitted, relative to the assay's reference.

As for `Cc1cc(C)c2c(n1)sc1c(NCc3ccc(S(C)(=O)=O)cc3)ncnc12` [Compound 204, 7,9-dimethyl-N-[(4-methylsulfonylphenyl)methyl]pyrido [3′,2′:4,5]thieno[3,2-d] pyrimidin-4-amine], the Emax came to 34.5%. Besides, the EC50 under setting [1] was 294 nM.

Regarding `Cc1cc(C)c2c(n1)sc1c(NCc3cnc(C)nc3)ncnc12` [Compound 205, 7,9-dimethyl-N-[(2-methylpyrimidin-5-yl)methyl]pyrido[3′,2′:4,5] thieno[3,2-d] pyrimidin-4-amine], the maximal response (Emax) turned out to be 54.2%. Moreover, under setting [1], the EC50 worked out at 1400 nM. In the case of `Cc1cc(C)c2c(n1)sc1c(NCc3ccc(C(C)(C)O)cc3)ncnc12` [Compound 206, 2-[4-[[(7,9-dimethylpyrido [3′,2′:4,5]thieno[3,2-d]pyrimidin-4-yl)amino]methyl]phenyl]propan-2-ol], the Emax was 75.8%. Under setting [1], the EC50 is 910 nM. Consider `Cc1cc(C)c2c(n1)sc1c(NC3CN(c4ncc(C(F)(F)F)cn4)C3)ncnc12` [Compound 207, 7,9-dimethyl-N-[1-[5-(trifluoromethyl)pyrimidin-2-yl]azetidin-3-yl]pyrido[3′,2′:4,5] thieno[3,2-d]pyrimidin-4-amine], for which the maximal response (Emax) was found to be 51.5%. Besides, the EC50 under setting [1] stood at 6550 nM.

In the case of `Cc1cc(C)c2c(n1)sc1c(NC3CN(c4ccnc(C5(O)CCC5)c4)C3)ncnc12` [Compound 208, 1-[4-[3-[(7,9-dimethylpyrido [3′,2′:4,5]thieno[3,2-d]pyrimidin-4-yl)amino]azetidin-1-yl]-2-pyridyl]cyclobutanol], the Emax is 75.4%. In addition, the 50% effective concentration (EC50) under setting [1] came to 462 nM. Take `Cc1c(Cl)nnc2sc3c(N4CCCC4)ncnc3c12` [Compound 209, 3-chloro-4-methyl-8-pyrrolidin-1-yl-pyrimido[4′,5′:4,5] thieno[2,3-c]pyridazine]: the Emax stood at 89.9%. In addition, under setting [1], the EC50 came out at 55.5 nM.

Take `Cc1c(Cl)nnc2sc3c(NC4CCC4)ncnc3c12` [Compound 210, 3-chloro-N-cyclobutyl-4-methyl-pyrimido [4′,5′:4,5]thieno[2,3-c] pyridazin-8-amine]: the maximal response (Emax) turned out to be 65.1%. Besides, under setting [1], the concentration for a half-maximal effect (EC50) amounted to 44.6 nM. In the case of `Cc1c(Cl)nnc2sc3c(NCc4ccc(OC(F)F)nc4)ncnc3c12` [Compound 211, 3-chloro-N-[[6-(difluoromethoxy)-3-pyridyl]methyl]-4-methyl-pyrimido [4′,5′:4,5]thieno[2,3-c] pyridazin-8-amine], the Emax came to 68.5%. Further, the EC50 under setting [1] stood at 787 nM. Taken in the same sequence, the figures for `COc1ccc(CNc2ncnc3c2sc2nnc(Cl)c(C)c23)cc1F` [Compound 212, 3-chloro-N-[(3-fluoro-4-methoxy-phenyl)methyl]-4-methyl-pyrimido[4′,5′:4,5] thieno[2,3-c]pyridazin-8-amine] were 80% and 405 nM. Consider `Cc1c(Cl)nnc2sc3c(NCc4ccc(C(C)(C)O)cc4)ncnc3c12` [Compound 213], for which the Emax came to 97.3%. On to `Cc1c(Cl)nnc2sc3c(NC4CN(c5ncc(C(F)(F)F)cn5)C4)ncnc3c12` [Compound 214, 3-chloro-4-methyl-N-[1-[5-(trifluoromethyl)pyrimidin-2-yl]azetidin-3-yl] pyrimido[4′,5′:4,5] thieno[2,3-c]pyridazin-8-amine], for which the maximal response (Emax) came out at 105%. Moreover, the EC50 under setting [1] was found to be 420 nM.

Consider `Cc1c(Cl)cnc2sc3c(N4CCCC4)ncnc3c12` [Compound 215, 8-chloro-9-methyl-4-pyrrolidin-1-yl-pyrido [3′,2′:4,5]thieno[3,2-d] pyrimidine], for which the Emax was determined as 45%. The EC50 under setting [1] was 5980 nM. Taken in the same sequence, the figures for `Cc1c(Cl)cnc2sc3c(N4CCC(F)(F)C4)ncnc3c12` [Compound 216, 8-chloro-4-(3,3-difluoropyrrolidin-1-yl)-9-methyl-pyrido [3′,2′:4,5]thieno[3,2-d] pyridimidine] were 52.4% and 685 nM. For the compound `COCC1CN(c2ncnc3c2sc2ncc(Cl)c(C)c23)C1` [Compound 218, 8-chloro-4-[3-(methoxymethyl)azetidin-1-yl]-9-methyl-pyrido [3′,2′:4,5]thieno[2,3-d] pyrimidine], the maximal response (Emax) came to 51.3%. Further, under setting [1], the EC50 was determined as 1020 nM.

Consider `Cc1c(Cl)cnc2sc3c(N4CC5CC5C4)ncnc3c12` (centres unmarked) [Compound 219, 4-(3-azabicyclo[3.1.0]hexan-3-yl)-8-chloro-9-methyl-pyrido [3′,2′:4,5]thieno[3,2-d] pyrimidine], for which the maximum response (Emax) turned out to be 47.8%. For the same compound, the EC50 under setting [1] stood at 555 nM. `Cc1c(Cl)cnc2sc3c(N4CCC(F)C4)ncnc3c12` (centres unmarked) [Compound 220, 8-chloro-4-(3-fluoropyrrolidin-1-yl)-9-methyl-pyrido [3′,2′:4,5]thieno[3,2-d] pyrimidine]: the maximal effect (Emax) stood at 63.8%. Moreover, the EC50 under setting [1] amounted to 885 nM. As to `Cc1c(Cl)cnc2sc3c(N4CCC4)ncnc3c12` [Compound 221, 4-(azetidin-1-yl)-8-chloro-9-methyl-pyrido[3′,2′:4,5] thieno[3,2-d] pyrimidine], the Emax stood at 40.6%. Besides, under setting [1], the half-maximal effective concentration (EC50) was 867 nM.

As for `Cc1c(Cl)cnc2sc3c(N4CC(F)(F)C4)ncnc3c12` [Compound 223, 8-chloro-4-(3,3-difluoroazetidin-1-yl)-9-methyl-pyrido [3′,2′:4,5]thieno[3,2-d] pyrimidine], the maximal effect (Emax) came to 44%. In addition, the 50% effective concentration (EC50) under setting [1] turned out to be 931 nM. Take `Cc1c(Cl)cnc2sc3c(N4CC(c5ccncc5)C4)ncnc3c12` [Compound 224, 8-chloro-9-methyl-4-[3-(4-pyridyl)azetidin-1-yl]pyrido [3′,2′:4,5]thieno[3,2-d] pyrimidine]: the maximal effect (Emax) is 57.6%. Further, the EC50 under setting [1] came out at 102 nM. On to `Cc1c(Cl)cnc2sc3c(NC4CN(c5ncc(F)cn5)C4)ncnc3c12` [Compound 225, 8-chloro-N-[1-(5-fluoropyrimidin-2-yl)azetidin-3-yl]-9-methyl-pyrido [3′,2′:4,5]thieno[3,2-d] pyrimidin-4-amine], for which the maximal effect (Emax) came to 63%. The EC50 under setting [1] came to 841 nM. With `Cc1c(Cl)cnc2sc3c(NC4(C)CC4)ncnc3c12` [Compound 226, 8-chloro-9-methyl-N-(1-methylcyclopropyl) pyrido[3′,2′:4,5]thieno [3,2-d]pyrimidin-4-amine], the Emax came out at 49%. Also, the EC50 under setting [1] was 481 nM. As for `Cc1c(Cl)cnc2sc3c(NC4CC4(C)C)ncnc3c12` (centres unmarked) [Compound 227, 8-chloro-N-(2,2-dimethylcyclopropyl)-9-methyl-pyrido[3′,2′:4,5] thieno[3,2-d] pyrimidin-4-amine], the maximum response (Emax) was determined as 56.2%. Besides, under setting [1], the EC50 came out at 665 nM.

For the compound `Cc1c(Cl)cnc2sc3c(NC4CCC4)ncnc3c12` [Compound 228, 8-chloro-N-cyclobutyl-9-methyl-pyrido [3′,2′:4,5]thieno[3,2-d] pyrimidin-4-amine], the maximal response (Emax) is 70%. For the same compound, the EC50 under setting [1] worked out at 3230 nM. Consider `Cc1c(Cl)cnc2sc3c(NCc4ccc(C(=O)N(C)C)cc4)ncnc3c12` [Compound 229, 4-[[(8-chloro-9-methyl-pyrido [3′,2′:4,5]thieno[3,2-d]pyrimidin-4-yl)amino]methyl]-N,N-dimethyl-benzamide], for which the Emax was found to be 54.5%. The concentration for a half-maximal effect (EC50) under setting [1] worked out at 1920 nM. As to `COc1cc(CNc2ncnc3c2sc2ncc(Cl)c(C)c23)cc(OC)c1` [Compound 230, 8-chloro-N-[(3,5-dimethoxyphenyl)methyl]-9-methyl-pyrido [3′,2′:4,5]thieno[3,2-d] pyrimidin-4-amine], the Emax amounted to 37.3%. For the same compound, the concentration giving a half-maximal response (EC50) (unit μM (bounds)) was above 10000 nM. As for `Cc1c(Cl)cnc2sc3c(NC4CN(c5cc(Cl)ncc5Cl)C4)ncnc3c12` [Compound 231, 8-chloro-N-[1-(2,5-dichloro-4-pyridyl)azetidin-3-yl]-9-methyl-pyrido [3′,2′:4,5]thieno[3,2-d] pyrimidin-4-amine], the Emax was found to be 44.3%. The EC50 under setting [1] amounted to 3710 nM. Regarding `Cc1c(Cl)cnc2sc3c(NCc4ccc(CN5CCOCC5)cc4)ncnc3c12` [Compound 232, 8-chloro-9-methyl-N-[[4-(morpholinomethyl)phenyl]methyl]pyrido [3′,2′:4,5]thieno[3,2-d] pyrimidin-4-amine], the Emax amounted to 69.8%. Also, under setting [1], the concentration for a half-maximal effect (EC50) is 9780 nM.

Consider `Cc1c(Cl)cnc2sc3c(NCc4ccc5c(c4)CC(C)(C)O5)ncnc3c12` [Compound 233, 8-chloro-N-[(2,2-dimethyl-3H-benzofuran-5-yl)methyl]-9-methyl-pyrido [3′,2′:4,5]thieno[3,2-d] pyrimidin-4-amine], for which the maximum response (Emax) amounted to 40.6%. Further, the EC50 under setting [1] was 5510 nM.

For `Cc1c(Cl)cnc2sc3c(NCc4ccc5c(c4)COC5)ncnc3c12` [Compound 234, 8-chloro-N-(1,3-dihydroisobenzofuran-5-ylmethyl)-9-methyl-pyrido [3′,2′:4,5]thieno[3,2-d] pyrimidin-4-amine], the Emax is 56.1%. For the same compound, the EC50 under setting [1] came out at 5580 nM. `Cc1c(Cl)cnc2sc3c(NCc4cnc5c(c4)CCC5)ncnc3c12` [Compound 235, 8-chloro-N-(6,7-dihydro-5H-cyclopenta[b]pyridin-3-ylmethyl)-9-methyl-pyrido [3′,2′:4,5]thieno[3,2-d] pyrimidin-4-amine]: the maximal response (Emax) was determined as 31.8%. Also, the EC50 under setting [1] is 2890 nM.
